For eight molecules, IC50 results are on record in patent US20210269451A1, “PYRIDINYL HETEROCYCLYL COMPOUNDS FOR THE TREATMENT OF AUTOIMMUNE DISEASE” (Hoffmann-La Roche Inc., priority 2018, published 2021).

For the assay, the target named is T1, human TLR7 (Homo sapiens, UniProt Q9NYK1).
T1 construct: host or cells: HEK293-Blue-hTLR-7 (HEK293)
T1 sequence (Q9NYK1 27-1049): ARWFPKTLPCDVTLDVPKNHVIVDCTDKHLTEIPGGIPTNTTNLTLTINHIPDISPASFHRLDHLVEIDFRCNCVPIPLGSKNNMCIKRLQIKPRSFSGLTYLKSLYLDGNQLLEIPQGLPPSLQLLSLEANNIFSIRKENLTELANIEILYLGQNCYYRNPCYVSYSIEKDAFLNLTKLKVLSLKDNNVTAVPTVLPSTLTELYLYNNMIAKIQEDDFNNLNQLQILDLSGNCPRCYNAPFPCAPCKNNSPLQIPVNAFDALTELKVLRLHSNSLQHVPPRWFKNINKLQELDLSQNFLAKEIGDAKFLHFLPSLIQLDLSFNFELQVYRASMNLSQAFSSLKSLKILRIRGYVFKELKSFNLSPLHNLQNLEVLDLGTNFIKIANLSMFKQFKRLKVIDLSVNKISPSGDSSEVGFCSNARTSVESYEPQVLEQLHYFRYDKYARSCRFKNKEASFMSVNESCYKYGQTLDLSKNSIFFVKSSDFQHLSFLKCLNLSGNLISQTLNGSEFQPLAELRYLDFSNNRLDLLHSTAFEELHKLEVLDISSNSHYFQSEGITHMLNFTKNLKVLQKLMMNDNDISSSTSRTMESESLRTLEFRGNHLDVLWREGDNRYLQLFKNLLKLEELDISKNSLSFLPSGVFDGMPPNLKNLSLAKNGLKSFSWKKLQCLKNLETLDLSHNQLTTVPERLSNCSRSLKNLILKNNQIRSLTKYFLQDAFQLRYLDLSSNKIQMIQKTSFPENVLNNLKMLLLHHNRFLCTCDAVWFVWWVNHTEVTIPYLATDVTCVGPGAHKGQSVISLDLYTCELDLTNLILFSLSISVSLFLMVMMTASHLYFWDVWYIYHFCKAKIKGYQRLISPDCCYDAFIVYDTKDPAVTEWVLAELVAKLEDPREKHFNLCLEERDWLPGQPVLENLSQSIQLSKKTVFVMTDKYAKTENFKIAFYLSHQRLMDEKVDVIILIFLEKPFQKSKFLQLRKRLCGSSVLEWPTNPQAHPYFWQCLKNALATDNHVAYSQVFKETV
Description: HEK293-Blue-hTLR-7 cells assay. In kind it is cell-based. The settings on record: HEK293-Blue-hTLR7 cells, R848 stimulation, 20 hrs, SEAP reporter; read-out: HEK/hTLR7 IC50. How it is done:
The following tests were carried out in order to determine the activity of the compounds of formula (I) and (Ia) in HEK293-Blue-hTLR-7/8/9 cells assay.
HEK293-Blue-hTLR-7 cells assay:
A stable HEK293-Blue-hTLR-7 cell line was purchased from InvivoGen (Cat. #: hkb-htlr7, San Diego, Calif., USA). These cells were originally designed for studying the stimulation of human TLR7 by monitoring the activation of NE-κB. A SEAP (secreted embryonic alkaline phosphatase) reporter gene was placed under the control of the IFN-β minimal promoter fused to five NE-κB and AP-1-binding sites. The SEAP was induced by activating NE-κB and AP-1 via stimulating HEK-Blue hTLR7 cells with TLR7 ligands. Therefore the reporter expression was declined by TLR7 antagonist under the stimulation of a ligand, such as R848 (Resiquimod), for incubation of 20 hrs. The cell culture supernatant SEAP reporter activity was determined using QUANTI-Blue™ kit (Cat. #: rep-qbl, Invivogen, San Diego, Ca, USA) at a wavelength of 640 nm, a detection medium that turns purple or blue in the presence of alkaline phosphatase.
HEK293-Blue-hTLR7 cells were incubated at a density of 250,000-450,000 cells/mL in a volume of 170 μL in a 96-well plate in Dulbecco's Modified Eagle's medium (DMEM) containing 4.5 g/L glucose, 50 U/mL penicillin, […], […], 2 mM L-glutamine, 10% (v/v) heat-inactivated fetal bovine serum with addition of 20 μL test compound in a serial dilution in the presence of final DMSO at 1% and 10 μL of 20 uM R848 in above DMEM, perform incubation under 37° C. in a CO2 incubator for 20 hrs. Then 20 μL of the supernatant from each well was incubated with 180 μL Quanti-blue substrate solution at 37° C. for 2 hrs and the absorbance was read at 620˜655 nm using a spectrophotometer. The signalling pathway that TLR7 activation leads to downstream NE-κB activation has been widely accepted, and therefore similar reporter assay was modified for evaluating TLR7 antagonist.

Structures are written as SMILES. pIC50: −log10 of the molar value.

With `Cc1cc(C2CCN(C[C@H]3CN(c4ccc(C#N)c5ncccc45)C[C@@H](C)O3)CC2)cc(N)n1` [Example 43, 5-[(2S,6R)-2-[[4-(2-amino-6-methyl-4-pyridyl)-1-piperidyl]methyl]-6-methyl-morpholin-4-yl]quinoline-8-carbonitrile], the pIC50 is 8.15. `Cc1cc(N2CC3(CN(C[C@H]4CN(c5ccc(C#N)c6ncccc56)C[C@@H](C)O4)C3)C2)cc(C(C)O)n1` (stereo partly drawn) [Example 44, 5-[(2S,6R)-2-[[2-[2-(1-hydroxyethyl)-6-methyl-4-pyridyl]-2,6-diazaspiro[3.3]heptan-6-yl]methyl]-6-methyl-morpholin-4-yl]quinoline-8-carbonitrile]: the pIC50 is 7.70.

With `C[C@@H]1CN(c2ccc(C#N)c3ncccc23)C[C@H](CN2CCN(c3cc(N)nc(CO)c3)CC2)O1` [Example 45, 5-[(2S,6R)-2-[[4-[2-amino-6-(hydroxymethyl)-4-pyridyl]piperazin-1-yl]methyl]-6-methyl-morpholin-4-yl]quinoline-8-carbonitrile], the pIC50 is 7.41. As for `CC(O)c1cc(N2CC3(CN(C[C@H]4CN(c5ccc(C#N)c6ncccc56)C[C@@H](C)O4)C3)C2)ccn1` (stereo partly drawn) [Example 46, 5-[(2S,6R)-2-[[2-[2-(1-hydroxyethyl)-4-pyridyl]-2,6-diazaspiro[3.3]heptan-6-yl]methyl]-6-methyl-morpholin-4-yl]quinoline-8-carbonitrile], the pIC50 is 7.49. Turning to `C[C@@H]1CN(c2ccc(C#N)c3ncccc23)C[C@H](CN2CC3(C2)CN(c2ccnc(C(C)(C)O)c2)C3)O1` [Example 48, 5-[(2S,6R)-2[[2-[2-(1-hydroxy-1-methyl-ethyl)-4-pyridyl]-2,6-diazaspiro[3.3]heptan-6-yl]methyl]-6-methyl-morpholin-4-yl]quinoline-8-carbonitrile], the pIC50 is 7.26.

Take `C[C@@H]1CN(c2ccc(C#N)c3ncccc23)C[C@H](CN2CC3(C2)CN(c2ccnc(C4CC4)c2)C3)O1` [Example 49, 5-[(2S,6R)-2[[2-(2-cyclopropyl-4-pyridyl)-2,6-diazaspiro[3.3]heptan-6-yl]methyl]-6-methyl-morpholin-4-yl]quinoline-8-carbonitrile]: the pIC50 was 7.89.

As to `Cc1cc(N2CCN(C[C@H]3CN(c4ccc(C#N)c5ncccc45)C[C@@H](C)O3)CC2)cc(CO)n1` [Example 50], the pIC50 is 8.00. `C[C@@H]1CN(c2ccc(C#N)c3ncccc23)C[C@H](CN2CC3(C2)CN(c2ccnc(CO)c2)CCO3)O1` [Example 51]: the pIC50 was over 8.52.
